Reference: patent publication US12509431B2, “1,4-dihydroquinazolinone compounds and uses thereof” (Edgewise Therapeutics, Inc., priority 2022, dated 2025)
Where two headings read alike, the source gives them in different places.

Assays:
[1] = system: isoflurane-anesthetized SD rats; assay: In vivo echocardiography of systolic cardiac performance (FS, SWT, HR, LV volumes) after a single oral dose; settings: Rattus norvegicus, single dose 10 mg/kg PO, ~2 hrs post-dosing, vs. vehicle
Protocol: Experiments were performed to evaluate the in vivo ability of the compounds of the disclosure to modulate systolic cardiac performance. Non-invasively echocardiography was used to assess cardiac indicators in isoflurane-anesthetized SD rats. A set of conscious rats were treated with either vehicle control (0 mg/kg PO; n=78) or a single dose of an test compound (10 mg/kg PO, n=2 to 6/compound) via oral gavage. Cardiac function/geometry were recorded at two separate time-points/days: once prior to dosing (i.e., at baseline, day −2) and at ˜2 hrs post-dosing (day 0).
In these experiments, heart rate (HR), echocardiography-derived indices of left-ventricular systolic performance, as well as dimensions/volumes were measured using a high-frequency transducer and parastemnal long-axis transthoracic views (Vevo3100, VisualSonic). LV fractional shortening (FS), an index of systolic function, was defined as the end-diastole normalized change in internal dimensions divided by the […] (LVid) of the left ventricle between end-systole (LVids) and end-diastole (LVidd) (i.e., FS=100·[LVidd−LVids]/LVidd). LV volumes were derived using the Teichholz formula (LVV=7·LVid^3/[2.4+LVid]). In addition, a systolic wall-thickening index (SWT) was also evaluated. SWT is defined as the relative ratio (end-diastole normalized) of left-ventricular (anterior and posterior) wall-thickness change during systole; i.e., SWT=I{[(anterior LV wall thickness in systole−anterior LV wall thickness in diastole)][…][(posterior LV wall thickness in systole−posterior LV wall thickness in diastole)]}/{2*diastolic thickness}. In all cases, blood samples were taken (via either tail-vein micro-sampling or cardiac-puncture) at the time of each echocardiographic examination in order to establish pharmacokinetic (PK)/pharmacodynamics (PD) relationships.

[2] = system: Rabbit Skeletal myofibrils (rabbit psoas muscle); assay: Myofibril ATPase assay (PK/LDH NADH-coupled), skeletal myofibrils; assay type: biochemical; settings: Table 7
How it was run: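 ATPase rate taken as linear-regression slope of A340 (NADH depletion through PK/LDH coupling) over a 75 min kinetic read, with psoas-derived rabbit skeletal myofibrils at pH 7.0. Four-parameter fits of vehicle-normalized activity give EC25 and, where reached, EC50.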

[3] = molecular target: T1, Porcine Ventricle myofibrils (left ventricle of Yucatan minipigs) (Sus scrofa, UniProt P79293); assay: Myofibril ATPase assay (PK/LDH NADH-coupled), ventricle myofibrils; assay type: biochemical; settings: Table 7
T1 construct: Myofibrils from porcine cardiac muscle was isolated from the left ventricle of Yucatan minipigs; tissue Exemplar Genetics; host or cells: left ventricle of Yucatan minipigs
T1 sequence (P79293 whole entry): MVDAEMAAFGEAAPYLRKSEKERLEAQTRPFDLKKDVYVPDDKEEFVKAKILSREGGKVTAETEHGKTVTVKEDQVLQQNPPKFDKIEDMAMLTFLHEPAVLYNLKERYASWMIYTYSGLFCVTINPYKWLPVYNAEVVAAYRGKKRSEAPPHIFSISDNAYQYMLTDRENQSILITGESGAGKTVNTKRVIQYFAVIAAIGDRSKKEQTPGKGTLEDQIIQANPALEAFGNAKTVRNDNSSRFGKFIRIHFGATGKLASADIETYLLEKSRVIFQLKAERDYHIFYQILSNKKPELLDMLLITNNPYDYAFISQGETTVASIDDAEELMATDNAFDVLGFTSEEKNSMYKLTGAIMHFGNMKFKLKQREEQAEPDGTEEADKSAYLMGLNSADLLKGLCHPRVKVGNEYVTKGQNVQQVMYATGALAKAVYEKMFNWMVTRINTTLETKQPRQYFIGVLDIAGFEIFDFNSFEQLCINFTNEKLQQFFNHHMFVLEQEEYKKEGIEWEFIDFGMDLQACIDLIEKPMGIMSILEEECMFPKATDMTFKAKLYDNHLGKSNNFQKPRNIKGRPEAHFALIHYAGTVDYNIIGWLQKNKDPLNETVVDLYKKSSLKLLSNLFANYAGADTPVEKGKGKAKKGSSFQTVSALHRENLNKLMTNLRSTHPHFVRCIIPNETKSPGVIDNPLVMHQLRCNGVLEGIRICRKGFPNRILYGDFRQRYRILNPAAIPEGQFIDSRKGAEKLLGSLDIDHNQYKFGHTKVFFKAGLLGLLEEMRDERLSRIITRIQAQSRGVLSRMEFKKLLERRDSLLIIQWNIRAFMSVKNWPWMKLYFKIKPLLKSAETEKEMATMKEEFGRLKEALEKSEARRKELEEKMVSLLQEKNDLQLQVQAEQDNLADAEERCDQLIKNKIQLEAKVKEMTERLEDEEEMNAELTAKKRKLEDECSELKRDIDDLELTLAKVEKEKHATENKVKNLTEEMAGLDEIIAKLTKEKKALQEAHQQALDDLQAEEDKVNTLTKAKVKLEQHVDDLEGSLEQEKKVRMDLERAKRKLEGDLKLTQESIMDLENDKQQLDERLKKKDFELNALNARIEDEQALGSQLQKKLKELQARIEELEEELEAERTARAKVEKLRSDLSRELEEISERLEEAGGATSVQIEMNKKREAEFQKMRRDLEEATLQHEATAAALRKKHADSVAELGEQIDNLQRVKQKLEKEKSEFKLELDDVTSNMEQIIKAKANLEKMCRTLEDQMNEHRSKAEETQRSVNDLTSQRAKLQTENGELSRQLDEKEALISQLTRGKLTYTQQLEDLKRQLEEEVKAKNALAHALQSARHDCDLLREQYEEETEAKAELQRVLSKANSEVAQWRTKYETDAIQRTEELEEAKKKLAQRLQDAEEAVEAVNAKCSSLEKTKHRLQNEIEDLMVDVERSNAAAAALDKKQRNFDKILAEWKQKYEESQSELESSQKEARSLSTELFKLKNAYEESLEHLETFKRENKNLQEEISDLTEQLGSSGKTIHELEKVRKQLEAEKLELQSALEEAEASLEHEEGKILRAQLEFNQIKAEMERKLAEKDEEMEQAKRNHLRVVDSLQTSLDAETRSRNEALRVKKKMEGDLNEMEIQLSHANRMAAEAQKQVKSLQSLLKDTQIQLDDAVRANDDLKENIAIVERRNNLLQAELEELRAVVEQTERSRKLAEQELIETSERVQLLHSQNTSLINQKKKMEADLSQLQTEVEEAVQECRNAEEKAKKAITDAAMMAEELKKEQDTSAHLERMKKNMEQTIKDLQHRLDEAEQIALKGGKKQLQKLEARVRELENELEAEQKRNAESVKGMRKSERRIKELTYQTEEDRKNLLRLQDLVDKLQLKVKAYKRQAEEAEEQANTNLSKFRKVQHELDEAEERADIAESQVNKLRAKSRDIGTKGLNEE
How it was run: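 NADH depletion (A340) coupled through pyruvate kinase/lactate dehydrogenase reports ATPase rate of porcine left-ventricle myofibrils over 75 min kinetic reads. Regression slopes, vehicle-normalized, fitted by 4-parameter logistic give EC25 and, where available, EC50.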

Porcine Atria myofibrils = assay: Myofibril ATPase assay (PK/LDH NADH-coupled), atria myofibrils; assay type: biochemical; settings: Table 7
How it was run: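 Values are EC25% (and, for inhibitors, EC50%) from 4-parameter logistic fits of activity normalized to vehicle wells. Rates came from linear regression of 340 nm kinetic reads (every 1.5-2 min, 75 min) of NADH-coupled ATP turnover by porcine atria myofibrils.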

SMILES	Rabbit Psoas IC25 [2] [nM]	Porcine Ventricle IC25 [3] [nM]	Porcine Atria IC25 (Porcine Atria myofibrils) [nM]	change in vivo at 10 mg/kg ([1]; EDV (LV volume, Teichholz formula), read-out: EDV % vs. VEH) [%]	change in vivo at 10 mg/kg ([1]; LV fractional shortening, read-out: FS % vs. VEH) [%]	change in vivo at 10 mg/kg ([1]; heart rate, read-out: HR % vs. VEH) [%]	change in vivo at 10 mg/kg ([1]; systolic wall-thickening index, read-out: SWT % vs. VEH) [%]
C[C@@H](NC(=O)CN1C(=O)Nc2ccc(F)c(F)c2C1O)c1ncc(C#N)cc1F (stereo partly shown) [Compound B327]				-2	-1	5	10
C[C@H](NC(=O)CN1Cc2nc(F)ccc2NC1=O)c1ncc(F)cc1F [Compound N105]	30960	100000	100000				
COc1ccc2c(n1)CN([C@H](C)C(=O)N[C@@H](C)c1ccc(F)cc1F)C(=O)N2 [Compound N106]	3732	100000	2580				
COc1ccc2c(n1)CN([C@@H](C)C(=O)N[C@@H](C)c1ccc(F)cc1F)C(=O)N2 [Compound N107]	100000	100000	100000				
C[C@H](NC(=O)[C@H](C)N1Cc2c(ccnc2C(F)(F)F)NC1=O)c1ccc(F)cc1F [Compound N108]	72.7	49280	1410				
C[C@H](NC(=O)CN1Cc2nc(OC(F)(F)F)ccc2NC1=O)c1ccc(F)cc1F [Compound N109]	455.3	100000	5440				
C[C@H](NC(=O)CN1Cc2nc(C(F)(F)F)ccc2NC1=O)c1ccc(F)cc1F [Compound N112, N-[(1S)-1-(2,4-Difluorophenyl)ethyl]-2-[2-oxo-6-(trifluoromethyl)-1H,4H-pyrido[3,2-d]pyrimidin-3-yl]acetamide]	296.8	9823	230				
C[C@H](NC(=O)CN1Cc2nc(OC3CC3)ccc2NC1=O)c1ccc(F)cc1F [Compound N113]	328.1	73850	22120				
C[C@H](NC(=O)[C@H](C)N1Cc2c(ccnc2Cl)NC1=O)c1ccc(F)cc1F [Compound N114]	289.2	8373	2300				
C[C@H](NC(=O)[C@@H](C)N1Cc2c(ccnc2Cl)NC1=O)c1ccc(F)cc1F [Compound N115]	22.8	751.6	510				
COc1ccc2c(n1)CN(CC(=O)N[C@@H](C)c1ccc(F)cc1F)C(=O)N2 [Compound N119]	119.6	3289	570				
CC(C)Oc1nccc2c1CN(CC(=O)N[C@@H](C)c1ccc(F)cc1F)C(=O)N2 [Compound N120]	423.9	27230	100000				
CCOc1nccc2c1CN(CC(=O)N[C@@H](C)c1ccc(F)cc1F)C(=O)N2 [Compound N121]	21.8	5985	510				
C[C@H](NC(=O)CN1Cc2c(ccnc2OCC(F)F)NC1=O)c1ccc(F)cc1F [Compound N122]	56.7	11420	360				
C[C@H](NC(=O)CN1Cc2c(ccnc2C2CC2)NC1=O)c1ccc(F)cc1F [Compound N127, 2-[5-Cyclopropyl-2-oxo-1H,4H-pyrido[4,3-d]pyrimidin-3-yl]-N-[(1S)-1-(2,4-difluorophenyl)ethyl]acetamide]	293.1	73050	3120				
C[C@H](NC(=O)CN1Cc2c(ccnc2Cl)NC1=O)c1ccc(F)cc1F [Compound N128, 2-{5-Chloro-2-oxo-1H,4H-pyrido[4,3-d]pyrimidin-3-yl}-N-[(1S)-1-(2,4-difluorophenyl)ethyl]acetamide]	41.8	253.3	80				
Cc1nccc2c1CN(CC(=O)N[C@@H](C)c1ccc(F)cc1F)C(=O)N2 [Compound N129, N-[(1S)-1-(2,4-Difluorophenyl)ethyl]-2-{5-methyl-2-oxo-1H,4H-pyrido[4,3-d]pyrimidin-3-yl}acetamide]	559	4847	4200				
C[C@H](NC(=O)CN1Cc2cnccc2NC1=O)c1ccc(Cl)cc1 [Compound N131]	8051	100000	36110				
C[C@H](NC(=O)CN1Cc2cnccc2NC1=O)c1ccc(F)cc1F [Compound N133]	839.1	13900	2800				
N#Cc1cnc2c(n1)CC[C@@H]2NC(=O)CN1C(=O)Nc2ccc(C#N)nc2C12CC2 [Compound N136]	100000	10900	290				

Now from value to compound, other results behind:

Rabbit Psoas IC25 [2] [nM]	Porcine Ventricle IC25 [3] [nM]	Porcine Atria IC25 (Porcine Atria myofibrils) [nM]	SMILES	change in vivo at 10 mg/kg ([1]; EDV (LV volume, Teichholz formula), read-out: EDV % vs. VEH) [%]	change in vivo at 10 mg/kg ([1]; LV fractional shortening, read-out: FS % vs. VEH) [%]	change in vivo at 10 mg/kg ([1]; heart rate, read-out: HR % vs. VEH) [%]	change in vivo at 10 mg/kg ([1]; systolic wall-thickening index, read-out: SWT % vs. VEH) [%]
167.4	19540	190	CC(C(=O)N[C@@H](C)c1ccc(F)cc1F)N1Cc2nc(F)ccc2NC1=O (stereo partly shown) [Compound N110]				
102.7	6670	80	C[C@H](NC(=O)[C@@H](C)N1Cc2nc(F)ccc2NC1=O)c1ccc(F)cc1F [Compound N111]				
191.4	40220	4380	C[C@H](NC(=O)CN1Cc2c(ccnc2OC2CC2)NC1=O)c1ccc(F)cc1F [Compound N116]				
14.6	379.5	170	C[C@H](NC(=O)CN1Cc2nc(Cl)ccc2NC1=O)c1ccc(F)cc1F [Compound N117, 2-{6-Chloro-2-oxo-1H,4H-pyrido[3,2-d]pyrimidin-3-yl}-N-[(1S)-1-(2,4-difluorophenyl)ethyl]acetamide]				
152	5896	750	CCOc1ccc2c(n1)CN(CC(=O)N[C@@H](C)c1ccc(F)cc1F)C(=O)N2 [Compound N118]				
35.14	859.2	70	C[C@H](NC(=O)CN1Cc2nc(F)ccc2NC1=O)c1ccc(F)cc1F [Compound N123]				
50.3	245.2	80	C[C@H](NC(=O)CN1Cc2c(ccnc2F)NC1=O)c1ccc(F)cc1F [Compound N124]				
42.3	2663	680	COc1nccc2c1CN(CC(=O)N[C@@H](C)c1ccc(F)cc1F)C(=O)N2 [Compound N125, N-[(1S)-1-(2,4-Difluorophenyl)ethyl]-2-{5-methoxy-2-oxo-1H,4H-pyrido[4,3-d]pyrimidin-3-yl}acetamide]				
75.62	4027	600	C[C@H](NC(=O)CN1Cc2c(ccnc2C(F)(F)F)NC1=O)c1ccc(F)cc1F [Compound N126]				
688	100000	1540	O=C(CN1Cc2cnccc2NC1=O)N[C@H]1CCCc2cc(F)cc(F)c21 [Compound N130]				
1636	97090	3750	Cc1cc(F)ccc1[C@H](C)NC(=O)CN1Cc2cnccc2NC1=O [Compound N132]				
100000	100000	6420	N#Cc1cnc2c(n1)CC[C@H]2NC(=O)CN1C(=O)Nc2ccc(C#N)nc2C12CC2 [Compound N135]				
